Source: ChEMBL document CHEMBL4725398 (Bioorg Med Chem, 2020)

Key:
NCI-H1975 [1] = experiment: cells; conditions: Homo sapiens, NCI-H1975, 48 h
[2] = target: Epidermal growth factor receptor (Homo sapiens, UniProt P00533, L858R/T790M); experiment: Inhibition of recombinant human EGFR T790M/L858R mutant expressed in baculovirus insect cell expression system in presence of ATP preincubated 5 mins measured for 30 mins by detection reagent based HTRF analysis
SW-620 = experiment: cells; conditions: Homo sapiens, SW-620, 48 h
Description: Antiproliferation activity against EGFR-negative human SW620 cells assessed as reduction in cell viability incubated incubated for 48 hrs by MTT assay

A-431 = experiment: cells; conditions: Homo sapiens, A-431, 48 h
Description: Antiproliferation activity against human A431 cells assessed as reduction in cell viability incubated incubated for 48 hrs by MTT assay

[3] = target: Epidermal growth factor receptor (Homo sapiens, UniProt P00533); experiment: Inhibition of wild type EGFR (unknown origin) in presence of ATP preincubated 5 mins measured for 30 mins by detection reagent based HTRF analysis
Sequence of Epidermal growth factor receptor (Homo sapiens, UniProt P00533) (P00533 whole entry): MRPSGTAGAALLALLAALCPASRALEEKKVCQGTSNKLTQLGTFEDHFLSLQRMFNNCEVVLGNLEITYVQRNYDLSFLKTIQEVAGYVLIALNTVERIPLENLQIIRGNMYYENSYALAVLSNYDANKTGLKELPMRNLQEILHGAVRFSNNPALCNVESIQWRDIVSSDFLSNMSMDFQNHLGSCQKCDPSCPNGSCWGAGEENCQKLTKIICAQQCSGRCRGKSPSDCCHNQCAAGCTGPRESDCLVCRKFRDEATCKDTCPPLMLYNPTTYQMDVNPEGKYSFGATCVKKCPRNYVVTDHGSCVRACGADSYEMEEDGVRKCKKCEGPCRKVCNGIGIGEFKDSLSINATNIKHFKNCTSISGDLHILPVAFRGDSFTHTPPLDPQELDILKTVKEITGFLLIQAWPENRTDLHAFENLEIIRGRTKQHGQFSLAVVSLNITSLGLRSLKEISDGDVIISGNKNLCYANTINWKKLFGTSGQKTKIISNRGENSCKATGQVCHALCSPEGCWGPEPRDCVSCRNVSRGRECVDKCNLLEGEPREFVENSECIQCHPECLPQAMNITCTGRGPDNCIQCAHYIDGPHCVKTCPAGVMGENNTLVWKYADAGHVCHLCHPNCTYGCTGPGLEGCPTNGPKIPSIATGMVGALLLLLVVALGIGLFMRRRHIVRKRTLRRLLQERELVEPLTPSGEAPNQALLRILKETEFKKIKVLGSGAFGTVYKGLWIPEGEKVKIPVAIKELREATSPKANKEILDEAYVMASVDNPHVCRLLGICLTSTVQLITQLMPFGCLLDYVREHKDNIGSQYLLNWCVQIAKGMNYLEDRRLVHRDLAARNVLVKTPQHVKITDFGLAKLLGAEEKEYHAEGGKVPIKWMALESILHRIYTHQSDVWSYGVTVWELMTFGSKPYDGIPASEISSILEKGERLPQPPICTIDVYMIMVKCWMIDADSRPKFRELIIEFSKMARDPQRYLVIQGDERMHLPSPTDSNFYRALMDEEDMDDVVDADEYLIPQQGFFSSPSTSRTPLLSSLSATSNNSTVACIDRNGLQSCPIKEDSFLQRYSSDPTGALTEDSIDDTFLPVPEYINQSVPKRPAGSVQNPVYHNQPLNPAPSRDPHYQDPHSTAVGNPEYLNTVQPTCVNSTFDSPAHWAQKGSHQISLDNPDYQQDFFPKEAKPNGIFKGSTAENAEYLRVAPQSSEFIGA

COS-7 = experiment: Cytotoxicity against African green monkey COS7 cells assessed as decrease in cell viability incubated incubated for 48 hrs by MTT assay; format: cell-based; conditions: Chlorocebus aethiops, COS-7, 48 h
NCI-H1975 [4] = experiment: Cell cycle arrest in human NCI-H1975 cells assessed as decrease in accumulation at G2/M phase at 0.25 to 1 uM incubated for 24 hrs measured after 2 days by propidium iodide staining based flow cytometric analysis (reference value: 34.04%); format: functional; parameters: scale not given: the % may be the effect or the level left; conditions: dose microM 0.25-1
NCI-H1975 [5] = experiment: Cell cycle arrest in human NCI-H1975 cells assessed as accumulation at S phase at 1 uM incubated for 24 hrs measured after 2 days by propidium iodide staining based flow cytometric analysis (reference value: 24.04 %); format: functional
NCI-H1975 [6] = experiment: Cell cycle arrest in human NCI-H1975 cells assessed as accumulation at S phase at 0.25 uM incubated for 24 hrs measured after 2 days by propidium iodide staining based flow cytometric analysis (reference value: 24.04 %); format: functional
NCI-H1975 [7] = experiment: Cell cycle arrest in human NCI-H1975 cells assessed as accumulation at G2 phase at 0.5 uM incubated for 24 hrs measured after 2 days by propidium iodide staining based flow cytometric analysis (reference value: 34.04 %); format: functional
NCI-H1975 [8] = experiment: Cell cycle arrest in human NCI-H1975 cells assessed as accumulation at G1 phase at 0.25 uM incubated for 24 hrs measured after 2 days by propidium iodide staining based flow cytometric analysis (reference value: 41.92 %); format: functional
NCI-H1975 [9] = experiment: Cell cycle arrest in human NCI-H1975 cells assessed as accumulation at G2/G1 phase at 1 uM incubated for 24 hrs measured after 2 days by propidium iodide staining based flow cytometric analysis (reference value: 1.89 %); format: functional
NCI-H1975 [10] = experiment: Cell cycle arrest in human NCI-H1975 cells assessed as accumulation at G2/G1 phase at 0.5 uM incubated for 24 hrs measured after 2 days by propidium iodide staining based flow cytometric analysis (reference value: 1.89 %); format: functional
NCI-H1975 [11] = experiment: Cell cycle arrest in human NCI-H1975 cells assessed as accumulation at G1 phase at 0.5 uM incubated for 24 hrs measured after 2 days by propidium iodide staining based flow cytometric analysis (reference value: 41.92 %); format: functional
NCI-H1975 [12] = experiment: Cell cycle arrest in human NCI-H1975 cells assessed as accumulation at G2 phase at 1 uM incubated for 24 hrs measured after 2 days by propidium iodide staining based flow cytometric analysis (reference value: 34.04 %); format: functional
NCI-H1975 [13] = experiment: Cell cycle arrest in human NCI-H1975 cells assessed as accumulation at G2/G1 phase at 0.25 uM incubated for 24 hrs measured after 2 days by propidium iodide staining based flow cytometric analysis (reference value: 1.89 %); format: functional
NCI-H1975 [14] = experiment: Cell cycle arrest in human NCI-H1975 cells assessed as accumulation at S phase at 0.5 uM incubated for 24 hrs measured after 2 days by propidium iodide staining based flow cytometric analysis (reference value: 24.04 %); format: functional
NCI-H1975 [15] = experiment: Cell cycle arrest in human NCI-H1975 cells assessed as diploid cell at 1 uM incubated for 24 hrs measured after 2 days by propidium iodide staining based flow cytometric analysis (reference value: 100 %); format: functional
NCI-H1975 [16] = experiment: Cell cycle arrest in human NCI-H1975 cells assessed as diploid cell at 0.5 uM incubated for 24 hrs measured after 2 days by propidium iodide staining based flow cytometric analysis (reference value: 100 %); format: functional
NCI-H1975 [17] = experiment: Cell cycle arrest in human NCI-H1975 cells assessed as accumulation at G1 phase at 1 uM incubated for 24 hrs measured after 2 days by propidium iodide staining based flow cytometric analysis (reference value: 41.92 %); format: functional
NCI-H1975 [18] = experiment: Cell cycle arrest in human NCI-H1975 cells assessed as accumulation at G2 phase at 0.25 uM incubated for 24 hrs measured after 2 days by propidium iodide staining based flow cytometric analysis (reference value: 34.04 %); format: functional
NCI-H1975 [19] = experiment: Cell cycle arrest in human NCI-H1975 cells assessed as increase in accumulation at G0/G1 phase at 0.25 to 1 uM treated for 24 hrs measured after 2 days by propidium iodide staining based flow cytometric analysis (reference value: 41.92%); format: functional; conditions: dose microM 0.25-1
NCI-H1975 [20] = experiment: Cell cycle arrest in human NCI-H1975 cells assessed as diploid cell at 0.25 uM incubated for 24 hrs measured after 2 days by propidium iodide staining based flow cytometric analysis (reference value: 100 %); format: functional

Sequence of Epidermal growth factor receptor (Homo sapiens, UniProt P00533, L858R/T790M) (P00533 25-1210 T790M/L858R limits assumed): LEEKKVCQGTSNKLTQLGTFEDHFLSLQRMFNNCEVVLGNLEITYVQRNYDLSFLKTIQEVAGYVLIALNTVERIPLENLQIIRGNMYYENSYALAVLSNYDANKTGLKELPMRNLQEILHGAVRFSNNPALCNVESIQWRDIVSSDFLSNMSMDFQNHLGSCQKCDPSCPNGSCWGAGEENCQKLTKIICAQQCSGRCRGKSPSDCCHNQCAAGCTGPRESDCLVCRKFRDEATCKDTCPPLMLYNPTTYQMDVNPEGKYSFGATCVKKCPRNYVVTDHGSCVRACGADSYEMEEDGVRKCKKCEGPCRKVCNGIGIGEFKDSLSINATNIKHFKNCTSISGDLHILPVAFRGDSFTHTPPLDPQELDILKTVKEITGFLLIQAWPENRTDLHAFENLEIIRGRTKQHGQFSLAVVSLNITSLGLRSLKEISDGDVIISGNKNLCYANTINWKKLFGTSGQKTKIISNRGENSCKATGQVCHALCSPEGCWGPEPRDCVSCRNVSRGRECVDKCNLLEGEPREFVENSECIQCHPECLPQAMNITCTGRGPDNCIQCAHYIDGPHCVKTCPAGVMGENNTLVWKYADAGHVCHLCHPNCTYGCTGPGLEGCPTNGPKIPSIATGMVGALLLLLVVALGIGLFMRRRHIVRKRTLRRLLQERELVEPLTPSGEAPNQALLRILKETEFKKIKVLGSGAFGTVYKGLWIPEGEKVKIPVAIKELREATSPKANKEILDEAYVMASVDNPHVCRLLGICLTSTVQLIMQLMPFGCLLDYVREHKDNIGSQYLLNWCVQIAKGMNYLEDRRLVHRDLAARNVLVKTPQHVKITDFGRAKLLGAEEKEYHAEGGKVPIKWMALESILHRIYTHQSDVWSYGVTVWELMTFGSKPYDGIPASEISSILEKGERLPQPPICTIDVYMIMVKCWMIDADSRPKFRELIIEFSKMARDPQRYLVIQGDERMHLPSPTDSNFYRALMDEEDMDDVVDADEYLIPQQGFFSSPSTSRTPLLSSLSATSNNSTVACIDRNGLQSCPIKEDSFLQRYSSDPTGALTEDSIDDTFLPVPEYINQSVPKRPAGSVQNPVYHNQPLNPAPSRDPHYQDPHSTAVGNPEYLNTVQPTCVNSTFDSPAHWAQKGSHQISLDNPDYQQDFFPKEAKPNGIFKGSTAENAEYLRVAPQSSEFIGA

Compound | IC50 (NCI-H1975 [1]) [nM] | IC50 (SW-620) [nM] | IC50 (A-431) [nM] | also measured
C=C(Cl)C(=O)Nc1cccc(Nc2nc(Nc3ccc(N4CCN(C(C)=O)CC4)nc3)ncc2Cl)c1 | 1640 | 2410 | 870 | IC50 [2]: 7.5 nM; IC50 [3]: 130 nM
C=C(F)C(=O)Nc1cccc(Nc2nc(Nc3ccc(N4CCN(C(C)=O)CC4)cc3OC)ncc2Cl)c1 | 1820 |  | 1580 | 
C=C(Cl)C(=O)Nc1cccc(Oc2nc(Nc3ccc(N4CCN(C)CC4)cc3OC)ncc2Cl)c1 | 13600 |  | 1060 | 
C=C(Cl)C(=O)Nc1cccc(Nc2nc(Nc3ccc(N4CCN(C(C)=O)CC4)cc3OC)ncc2Cl)c1 | 3120 |  | 4440 | 
C=C(Cl)C(=O)Nc1cccc(Nc2nc(Nc3ccc(N4CCN(C(C)=O)CC4)c(C)c3)ncc2Cl)c1 | 180 | 2070 | 1300 | IC50 [2]: 2.6 nM; IC50 (COS-7): 5400 nM; IC50 [3]: 51 nM
C=C(Cl)C(=O)Nc1cccc(Nc2nc(Nc3ccc(N4CCN(C(C)=O)CC4)cc3OC)ncc2C(F)(F)F)c1 | 200 | 3990 | 3680 | IC50 [2]: 16 nM; IC50 [3]: 257 nM
C=C(F)C(=O)Nc1cc(Nc2ncc(Cl)c(-c3cn(C)c4ccccc34)n2)ccc1N(C)C | > 50000 |  | > 50000 | 
C=C(F)C(=O)Nc1cccc(Oc2nc(Nc3ccc(N4CCN(C(C)=O)CC4)cc3OC)ncc2Cl)c1 | 7030 |  | > 50000 | 
C=C(Cl)C(=O)Nc1cccc(Oc2nc(Nc3ccc(N4CCN(C(C)=O)CC4)c(C(F)(F)F)c3)ncc2Cl)c1 | 2500 |  | 1470 | 
C=C(F)C(=O)Nc1cccc(Nc2nc(Nc3ccc(N4CCN(C(C)=O)CC4)c(C(F)(F)F)c3)ncc2Cl)c1 | 9880 |  | 2860 | 
C=C(Cl)C(=O)Nc1cccc(Nc2nc(Nc3ccc(N4CCN(C(C)=O)CC4)c(Cl)c3)ncc2Cl)c1 | 1020 | 2340 | 140 | IC50 [2]: 3.2 nM; IC50 (COS-7): 7220 nM; IC50 [3]: 53 nM
C=C(Cl)C(=O)Nc1cccc(Nc2nc(Nc3ccc(N4CCN(C(C)=O)CC4)cc3Cl)ncc2Cl)c1 | 1720 | 3020 | 1830 | IC50 [2]: 47 nM; IC50 (COS-7): 14900 nM; IC50 [3]: 301 nM
C=C(C(=O)Nc1cccc(Nc2nc(Nc3ccc(N4CCN(C(C)=O)CC4)cc3)ncc2Cl)c1)c1ccccc1 | 5790 |  | 6160 | 
C=C(Cl)C(=O)Nc1cccc(Oc2nc(Nc3ccc(N4CCN(C(C)=O)CC4)cc3OC)ncc2Cl)c1 | 3320 |  | 1890 | 
C=C(Cl)C(=O)Nc1cccc(Nc2nc(Nc3ccc(N4CCN(C(C)=O)CC4)c(F)c3)ncc2Cl)c1 | 420 |  | 1140 | 
C=C(F)C(=O)Nc1cccc(Nc2nc(Nc3ccc(N4CCN(C(C)=O)CC4)c(F)c3)ncc2Cl)c1 | 6560 |  | 7090 | 
C=C(C)C(=O)Nc1cccc(Nc2nc(Nc3ccc(N4CCN(C(C)=O)CC4)cc3OC)ncc2Cl)c1 | 3820 |  | 2370 | 
C=C(Cl)C(=O)Nc1cccc(Oc2nc(Nc3ccc(N4CCN(C(C)=O)CC4)cc3)ncc2Cl)c1 | 1150 | 4600 | 620 | IC50 [2]: 13 nM; IC50 [3]: 130 nM
C=C(Cl)C(=O)Nc1cc(Nc2ncc(Cl)c(-c3cn(C)c4ccccc34)n2)ccc1N(C)C | 16900 |  | 2200 | 
C=C(F)C(=O)Nc1cccc(Nc2nc(Nc3ccc(N4CCN(C(C)=O)CC4)c(Cl)c3)ncc2Cl)c1 | 4180 |  | 7130 | 
C=C(C)C(=O)Nc1cccc(Nc2nc(Nc3ccc(N4CCN(C(C)=O)CC4)cc3)ncc2Cl)c1 | 5570 |  | 10600 | 
C=C(Cl)C(=O)Nc1cccc(Nc2nc(Nc3ccc(N4CCN(C(C)=O)CC4)cc3)ncc2Cl)c1 | 750 | 29200 | 3140 | Activity (NCI-H1975 [4]): 22.18%; Activity (NCI-H1975 [5]): 16.89%; Activity (NCI-H1975 [6]): 21.67%; Activity (NCI-H1975 [7]): 22.18%; IC50 [2]: 3.9 nM; Activity (NCI-H1975 [8]): 54.06%; Activity (NCI-H1975 [9]): 1.89%; IC50 (COS-7): 10400 nM; Activity (NCI-H1975 [10]): 1.94%; Activity (NCI-H1975 [11]): 58.39%; Activity (NCI-H1975 [12]): 19.15%; Activity (NCI-H1975 [13]): 1.95%; Activity (NCI-H1975 [14]): 19.43%; Activity (NCI-H1975 [15]): 99.81%; Activity (NCI-H1975 [16]): 98.81%; Activity (NCI-H1975 [17]): 63.96%; Activity (NCI-H1975 [18]): 24.27%; Activity (NCI-H1975 [19]): 58.39%; Activity (NCI-H1975 [20]): 98.52%; IC50 [3]: 70 nM
C=C(F)C(=O)Nc1cccc(Nc2nc(Nc3ccc(N4CCN(C(C)=O)CC4)cc3)ncc2Cl)c1 | 340 | 3610 | 6500 | 
C=C(F)C(=O)Nc1cccc(Nc2nc(Nc3ccc(N4CCN(C(C)=O)CC4)nc3)ncc2Cl)c1 | 20500 |  | 18100 | 
C=C(F)C(=O)Nc1cccc(Oc2nc(Nc3ccc(N4CCN(C)CC4)cc3OC)ncc2Cl)c1 | 16700 |  | 11000 | 
C=CC(=O)Nc1cccc(Nc2nc(Nc3ccc(N4CCN(C(C)=O)CC4)cc3OC)ncc2C(F)(F)F)c1 [ROCILETINIB] | 510 | 10500 | 6010 | IC50 (COS-7): 7390 nM
